In patent US20240122887A1, “THERAPEUTIC USES OF L-4-CHLOROKYNURENINE” (VISTAGEN THERAPEUTICS, INC., priority 2015, published 2024):

Experiments:
[1] = cited from earlier work
[2] = target: NMDA receptor glycine B (GlyB) coagonist site (Homo sapiens, UniProt Q05586); details: vs naturally occurring kynurenic acid; cited from earlier work
[3] = Phase 1b clinical study, plasma pharmacokinetics after oral L-4-chlorokynurenine (LC-MS/MS); details: human plasma
Experimental: (§1) Subjects were randomized into one of three cohorts (360, 1,080, and 1,440 mg) and received a daily oral dose for 14 consecutive days. […] However, a total of 50 subjects were enrolled in this study. […] Forty-six subjects completed the study per protocol.
(§2) Blood was collected in 6-mL lithium heparin Vacutainer tubes. Samples were centrifuged, and the plasma was separated from the cells and frozen within 30 minutes after centrifugation. Centrifuged samples were placed on ice until they were placed in the freezer. Plasma samples were stored frozen at approximately −20° C. until their shipment to a contractor for analysis.
(§3) Baseline samples (0 minutes) were collected before the drug was administered on Day 1 and on Day 14. Samples were then collected at 0.5, 1, 1.5, 2, 4, 6, 8, 12, and 24 hours after dosing on Day 1 and Day 14.
(§4) Both assays used a plasma sample volume of 50.0 μg/mL.

[4] = tested on: capsaicin-induced hyperalgesia; assay: Antihyperalgesic effect on capsaicin-induced hyperalgesia, VAS pain assessment, Phase 1b study; format: in vivo, human
Experimental: On Day 1 and Day 14 of the clinical study, two intradermal injections of 250 μg of capsaicin were injected sequentially into the volar aspect of alternate forearms to produce burning pain, secondary hyperalgesia, and a flare. The capsaicin USP (United States Pharmacopeia) was prepared according to the site's standard procedure and dissolved in 20% cyclodextrin at a concentration of 10 mg/mL. The first capsaicin injection in one forearm was given 1 hour after oral administration of L-4-chlorokynurenine or placebo, and the second capsaicin injection was given in the other forearm 2 hours after the administration of L-4-chlorokynurenine or placebo. The neurosensory testing began immediately at each capsaicin injection. The serial pain assessments using a 100-mm visual analog scale (VAS) occurred at preinjection and 0, 5, 10, 15, 30, 45, and 60 minutes after each capsaicin injection. The examiner asked the subject to rate the intensity by using the VAS of the spontaneous pain and elicited pain from the application of a 5.18 von Frey hair, 40° C. probe, and gentle stroking with a 1-inch foam brush. The VAS consisted of a 100-mm line with “no pain” written at the 0-mm end and the “worst imaginable pain” written at the 100-mm end. The distance in millimeters provided the pain measurement. […] At least eight determinations of the hyperalgesic area borders were made using the same assessments and starting at different angles. Additionally, subjects were asked to rate the pain intensity of a 1-minute 45° C. heat stimulus (brief thermal stimulation) applied to the anterior thigh at 4.5 hours (±5 minutes) after study drug administration, then every 30 minutes (±5 minutes) through 6 hours after study drug administration. A radiant temperature probe was applied to fix the skin temperature at 36° C. during the pain assessments. Subjects used the VAS for all pain assessments. All study assessment time points were anchored to Time 0, the time of study drug administration. […]

[5] = tested on: three animal models of peripheral tissue inflammation and nerve injury; assay: Animal models of peripheral tissue inflammation and nerve injury; format: in vivo
[6] = tested on: patients with a diagnosis of MDD; assay: Treatment of major depressive disorder, HDRS / MADRS (Example 3); format: in vivo, human; details: 1,080 or 1,440 mg/day orally for 2 weeks
Experimental: Twenty-five patients, both male and female, ages 18 to 65, with a diagnosis of MDD are treated with either L-4-chlorokynurenine (1,080 or 1,440 mg/day given orally) for 2 weeks, similar in design to similar studies. [Ibrahim et al. 2012, Zarate et al. 2013, Zarate et al. 2006, Zarate et al. 2005.] […] [Montgomery et al. 1979] Additional indicators of therapeutic efficacy for a given patient could also be the proportion of subjects achieving remission (HDRS≤7) and response (≥50% reduction from baseline in HDRS total score); change from baseline in Hamilton Anxiety Rating Scale (HAM-A) [Hamilton 1959], Columbia Suicide Severity Rating Scale (C-SSRS) total scores [Posner et al. 2011], as well as other measures of mood or psychological states, for example Beck Depression Inventory (BDI) [Beck et al., 1974], the Visual Analogue Scale (VAS) [Aitken 1969], the Brief Psychiatric Rating Scale (BPRS) [Overall et al. 1962], the Clinician Administered Dissociative Scale (CADSS) [Bremner et al. 1998] and the Young Mania Rating Scale (YMRS) [Young et al. 1978].

[7] = tested on: patients with obsessive-compulsive disorder; assay: Treatment of obsessive-compulsive disorder, OCD-VAS / Y-BOCS; format: in vivo, human; details: about 20 to about 2,000 mg/day
Experimental: Patients with obsessive-compulsive disorder (OCD) are treated with L-4-chlorokynurenine to reduce OCD symptoms. […] The dose of L-4-chlorokynurenine is selected from about 20 mg/day up to about 2,000 mg/day, more preferably about 300 mg/day to about 1,500 mg/day and more preferably about 700 mg/day to about 1,200 mg/day.

[8] = tested on: patients with chronic tinnitus; assay: Treatment of tinnitus, TQ / SF-36 / audiometric parameters (Example 5); format: in vivo, human; details: daily oral dose escalated 180, 720, 1440 mg/day
Experimental: One hundred male or female patients between 20-65 years of age with mon- or binaural chronic tinnitus lasting for at least 3-months are enrolled in the study. Patients are randomized into a drug and placebo groups, baseline psychometric and health measurements are taken, followed by blind administration of a daily single oral dose for 14-days of either L-4-chlorokynurenine (initial dose of 180 mg) or placebo. Subsequent psychometric and health measurements are taken at 3-, 7-, and 14-days post (prior to next drug administration) drug administration. At 14, and 28 days the dose of AV-101 is increased to 720 and 1440 mg/day respectively. At 42 and 70 days, all patients are given the panel of psychometric and health measurements. […]
Primary success measures are a statistically significant difference between the mean TQ scores of L-4-chlorokynurenine and placebo groups. […] Student t-test for independent samples or the Mann-Whitney test at each time point are used to assess the statistical significance of the quantitative data. The significance of the qualitative data is assessed with chi-square test or the Fisher exact test. To assess improvement over time and dose, TQ and secondary measurements are evaluated using Friedman Variance Analysis and similar tools for variance analysis.

[9] = human, in vivo, po
Experimental: as §1, §2, §3, §4

[10] = tested on: dopaminergic neurons; details: brains of rats; cited from earlier work

SMILES | Crossing of the blood-brain barrier ([1]; in vivo) | Potency and selectivity relative to endogenous KYNA [2] | Mean 7-chlorokynurenic acid AIC0-t ([3]; Day 1, after 1,440-mg oral dose of L-4-chlorokynurenine) | Mean 7-chlorokynurenic acid AIC0-t ([3]; Day 1, after lowest oral dose (360 mg) of L-4-chlorokynurenine) | Mean 7-chlorokynurenic acid Cmax and AIC0-t on Day 14 compared with Day 1 ([3]; once-daily oral doses of L-4-chlorokynurenine for 14 days) | Least squares means of the AUPC for allodynia pain, mechanical hyperalgesia pain and heat hyperalgesia pain vs placebo ([4]; 1,080 mg (Cohort 2)) | Secondary efficacy endpoints (AUPC spontaneous pain, elicited pain von Frey hair, 40° C. probe), treatment vs placebo ([4]; 120 to 180 min Day 1, 60 to 180 min Days 1 and 14) | Area under the pain time curve (AUPC) for spontaneous pain, treatment vs placebo (primary efficacy endpoint) ([4]; each dose level, 120 to 180 minutes after dosing on Day 14) | Antihyperalgesic action in animal models [5] | HDRS and/or MADRS total scores (overall depressive symptomatology) [6] | OCD symptoms (OCD-VAS, Y-BOCS) [7] | Symptoms of tinnitus (TQ, SF-36) [8] | Mean L-4-chlorokynurenine AIC0-t [9] | Mean L-4-chlorokynurenine Cmax and AIC0-t on Day 14 compared with Day 1 [9] | Mean t1/2 of L-4-chlorokynurenine [9] | Access to the central nervous system ([1]; after oral or parenteral administration) | Firing rate and burst firing activity of dopaminergic neurons [10]
O=C(O)c1cc(O)c2ccc(Cl)cc2n1 [7-chlorokynurenic acid] | does not cross the blood-brain barrier | about 20 × | 985 ng·h/mL | 156 ng·h/mL | slightly lower on Day 14 | – | – | – | – | – | – | – | – | – | – | – | –
Nc1cc(Cl)ccc1C(=O)CC(N)C(=O)O [L-4-chlorokynurenine] | – | – | – | – | – | consistent decrease | no significant changes | no significant change | potent antihyperalgesic actions | significant decrease | Patients show improvement | show improvement | 196000 ng·h/mL | slightly lower on Day 14 | 1.64 to 1.82 h | readily gains access to the central nervous system | increase
